# Assay results: patent US20260240968A1, “METHODS AND MODIFICATIONS FOR REDUCING INNATE IMMUNE RESPONSES TO RNA” (The Board of Trustees of the Leland Stanford Junior …, priority 2023, published 2026)
# Columns and labels:
# [1] = tested on: ISG15; experiment: RT-qPCR of ISG15 mRNA expression (Type I innate immune response via the RIG-1 pathway) in HEK293 cells lipofected with eGFP-mRNA; type: cell-based, human; conditions: HEK293 lipofected by eGFP-mRNA with or without cloaking by DMG-Im
# Excerpt: (§1) Transfection of in vitro transcribed RNA can trigger a potent Type I innate immune response in HEK293 cells (PMID: 30011268). Next, we investigated whether cloaking may modulate such response in HEK293 cells. To do this, HEK293 cells were lipofected by eGFP-mRNA with or without cloaking by DMG-Im. We measured the mRNA expression level of ISG15, an activation marker downstream of Type I innate immune response via the RIG-1 pathway.
# as §1, with “DMG-lm.” for “DMG-Im.”
# [2] = tested on: HEK293 cells; experiment: Spontaneous restoration of translation of cloaked GFP-mRNA (green fluorescence) in HEK293 cells; conditions: normal cells (HEK293)
# Excerpt: (§2) Thus, we investigated whether adducts by N,N-dimethylglycine acylimidazole can spontaneously release within the cells. To explored this, we employed cloaked mRNAs encoding a green fluorescence protein (GFP) (FIG. 6).
# We screened these acylimidazole reagents for spontaneous restoration of mRNA translation in HEK293 cells by transfection with d2GFP-mRNA aliquots that were acylated with these acylimidazole reagents at various levels of 2′-modification. We monitored the green fluorescence signal in HEK293 cells over three days.
# [3] = tested on: HeLa cells
# Excerpt: as §2
# [4] = tested on: SW480 cells; conditions: cancerous cells (SW480); cloaked mRNA
# Excerpt: as §2
# [5] = tested on: HEK293 cells; experiment: Luminex human 48-plex analysis of cytokines and immune activation markers released from HEK293 cells lipofected with eGFP-mRNA with or without cloaking; type: cell-based
# Procedure: As an initial assessment of how cloaking affects the innate immune responses of mRNA, we measured the release of cytokines and immune activation markers from HEK293 cells that were lipofected by eGFP-mRNA with or without cloaking. HEK293 cells were transfected with 2 μg of mRNA with lipofectamine MessengerMax. […] In comparison. […] The translation of eGFP-mRNA was insignificant at this time (6 hours post-transfection), so the release of these immunomodulatory cytokines/chemokines is largely due to cells sensing the mRNA.
# We further evaluated the effect of 2′-acylation on long-term immune response with Luminex human 48-plex assays in HEK293 cells that were transfected with modified eGFP-mRNA (FIG. 3 and FIG. 4).
# We next investigated whether the chemical structure of acylating reagents may differentially modulate certain innate immune response pathways. […] Because the maximum level of cloaking varied among these reagents, we proceeded to equimolarly cloak at ~50% of unpaired accessible 2′-hydroxyls of eGFP-mRNA with a similar level of modification. We measured the release of cytokines and immune activation markers from HEK293 cells that were lipofected by modified eGFP-mRNA with or without cloaking. HEK293 cells were transfected with 2 μg of mRNA aliquots with lipofectamine MessengerMax. […] Thus, acylating reagents with diverse chemical structures can differentially modulate certain innate immune-responsive pathways.
# [6] = long-term immune response, HEK293 transfected with modified eGFP-mRNA
structure (smiles),measurement,setting,value
"CN(C)CC(=O)n1ccnc1 [DMG-Im, N,N-dimethylglycine acylimidazole]",mRNA expression level of ISG15,[1],almost fully suppressed
same,"translation of GFP-mRNA with N,N-dimethylglycine adducts",[2],spontaneously restored
same,extension of the translational lifespan of mRNA encoding destabilized green fluorescent protein d2GFP,"[3]; HeLa cells, d2GFP-mRNA cloaked with DMG-Im",31%
same,"translation of GFP-mRNA with N,N-dimethylglycine adducts","[3]; cancerous cells (HeLa), cloaked mRNA",spontaneously restored
same,"translation of GFP-mRNA with N,N-dimethylglycine adducts",[4],spontaneously restored
same,expression of some proinflammatory cytokines and immune activation markers over time,"[5]; FIGS. 3A-3B, cloaking by DMG-Im",potently modulates
same,"release of proinflammatory chemokines and cytokines, including VEGF, RANTES/CCL5, PDGFAA, and IL8","[5]; HEK293 transfected with 2 μg of eGFP-mRNA, lipofectamine MessengerMax, six hours post-transfection",potently suppressed
same,"expression profiles of immune response mediators including type I interferon, CCL5, IL-8, IL-3, VEGF","[5]; RNA cloaked with the R group, FIGS. 9 and 10",distinct expression profiles
same,expression of many mRNA-stimulated cytokines,"[5]; cloaked vs unmodified eGFP-mRNA, six hours post-transfection",not significantly modulated
same,"reduction of the release of proinflammatory cytokines and activation (VEGF, RANTES/CCL5, PDGFAA, IL8)","[5]; eGFP-mRNA with intermediate cloaking (~50% of unpaired 2′-hydroxyls) vs unmodified, 2 μg, six hours post-transfection",≤ 90%
same,release of Granulocyte-macrophage colony-stimulating factor (GMCSF) over time,[5]; [6],increasingly suppressed overtime
same,release of proinflammatory Chemokine ligand 5 (CCL5) over time,[5]; [6],increasingly suppressed overtime
same,secretion of Vascular endothelial growth factor (VEGF) over time,[5]; [6],increasingly less suppressed over time
